# Data from ChEMBL document CHEMBL1201862, “PubChem BioAssay data set” (2004).
#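 Cultured in 96-well plates, cells were exposed to test compound for 48 hours across five concentrations. GI50 = concentration required for 50% inhibition of growth.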 Calls of active or inactive are those of the source. Rule as the data show it: active = GI50 up to about 1.1 µM and inactive = higher.
# Columns and labels:
# Experiment in all cases: DTP human tumour cell line panel, 48 h
# SK-MEL-2 = test system: SK-MEL-2
# LOX IMVI = test system: LOX IMVI
# SK-OV-3 = test system: SK-OV-3
# OVCAR-5 = test system: OVCAR-5
# IGROV-1 = test system: IGROV-1
# HL-60 = test system: HL-60
# CCRF-CEM = test system: CCRF-CEM
# SW-620 = test system: SW-620
# HOP-92 = test system: HOP-92
# SNB-75 = test system: SNB-75
# RXF 393 = test system: RXF 393
# OVCAR-4 = test system: OVCAR-4
# U-251 = test system: U-251
# DU-145 = test system: DU-145
# MDA-MB-231 = test system: MDA-MB-231
# UACC-257 = test system: UACC-257
# RPMI-8226 = test system: RPMI-8226
# SNB-19 = test system: SNB-19
# HT-29 = test system: HT-29
# CAKI-1 = test system: CAKI-1
# SK-MEL-28 = test system: SK-MEL-28
# HCT-116 = test system: HCT-116
# MOLT-4 = test system: MOLT-4
# SF-295 = test system: SF-295
# MCF7 = test system: MCF7
# SF-539 = test system: SF-539
# MDA-MB-435 = test system: MDA-MB-435
# EKVX = test system: EKVX
# COLO 205 = test system: COLO 205
# BT-549 = test system: BT-549
# OVCAR-3 = test system: OVCAR-3
# OVCAR-8 = test system: OVCAR-8
# PC-3 = test system: PC-3
# HCT-15 = test system: HCT-15
# SF-268 = test system: SF-268
# K562 = test system: K562
# NCI-H226 = test system: NCI-H226
# MDA-N = test system: MDA-N
# SR = test system: SR
# HOP-62 = test system: HOP-62
# UO-31 = test system: UO-31
# SK-MEL-5 = test system: SK-MEL-5
# SN12C = test system: SN12C
# A498 = test system: A498
# M14 = test system: M14
# KM12 = test system: KM12
# UACC-62 = test system: UACC-62
# TK-10 = test system: TK-10
# Malme-3M = test system: Malme-3M
# NCI/ADR-RES = test system: NCI/ADR-RES
# ACHN = test system: ACHN
# HCC 2998 = test system: HCC 2998
# T47D = test system: T47D
# Hs-578T = test system: Hs-578T
# NCI-H23 = test system: NCI-H23
# A549 = test system: A549
# 786-0 = test system: 786-0
# NCI-H460 = test system: NCI-H460
# NCI-H522 = test system: NCI-H522
structure (smiles),measurement,setting,value
CC(=O)CC(=O)N1CCOC1=O,GI50,SK-MEL-2,> 10 µM (inactive)
same,GI50,LOX IMVI,> 10 µM (inactive)
same,GI50,SK-OV-3,> 10 µM (inactive)
same,GI50,OVCAR-5,> 10 µM (inactive)
same,GI50,IGROV-1,> 10 µM (inactive)
same,GI50,HL-60,> 10 µM (inactive)
same,GI50,CCRF-CEM,> 10 µM (inactive)
same,GI50,SW-620,> 10 µM (inactive)
same,GI50,HOP-92,> 10 µM (inactive)
same,GI50,SNB-75,5.26 µM (inactive)
same,GI50,RXF 393,> 10 µM (inactive)
same,GI50,OVCAR-4,> 10 µM (inactive)
same,GI50,U-251,> 10 µM (inactive)
same,GI50,DU-145,> 10 µM (inactive)
same,GI50,MDA-MB-231,> 10 µM (inactive)
same,GI50,UACC-257,> 10 µM (inactive)
same,GI50,RPMI-8226,> 10 µM (inactive)
same,GI50,SNB-19,> 10 µM (inactive)
same,GI50,HT-29,> 10 µM (inactive)
same,GI50,CAKI-1,> 10 µM (inactive)
same,GI50,SK-MEL-28,> 10 µM (inactive)
same,GI50,HCT-116,> 10 µM (inactive)
same,GI50,MOLT-4,> 10 µM (inactive)
same,GI50,SF-295,> 10 µM (inactive)
same,GI50,MCF7,> 10 µM (inactive)
same,GI50,SF-539,> 10 µM (inactive)
same,GI50,MDA-MB-435,> 10 µM (inactive)
same,GI50,EKVX,> 10 µM (inactive)
same,GI50,COLO 205,> 10 µM (inactive)
same,GI50,BT-549,> 10 µM (inactive)
same,GI50,OVCAR-3,> 10 µM (inactive)
same,GI50,OVCAR-8,> 10 µM (inactive)
same,GI50,PC-3,> 10 µM (inactive)
same,GI50,HCT-15,> 10 µM
same,GI50,SF-268,> 10 µM (inactive)
same,GI50,K562,> 10 µM (inactive)
same,GI50,NCI-H226,> 10 µM (inactive)
same,GI50,MDA-N,> 10 µM (inactive)
same,GI50,SR,> 10 µM (inactive)
same,GI50,HOP-62,> 10 µM (inactive)
same,GI50,UO-31,> 10 µM (inactive)
same,GI50,SK-MEL-5,> 10 µM (inactive)
same,GI50,SN12C,> 10 µM (inactive)
same,GI50,A498,> 10 µM (inactive)
same,GI50,M14,> 10 µM (inactive)
same,GI50,KM12,> 10 µM (inactive)
same,GI50,UACC-62,> 10 µM (inactive)
same,GI50,TK-10,> 10 µM (inactive)
same,GI50,Malme-3M,> 10 µM (inactive)
same,GI50,NCI/ADR-RES,> 10 µM (inactive)
same,GI50,ACHN,> 10 µM (inactive)
same,GI50,HCC 2998,> 10 µM (inactive)
same,GI50,T47D,> 10 µM (inactive)
same,GI50,Hs-578T,> 10 µM (inactive)
same,GI50,NCI-H23,> 10 µM (inactive)
same,GI50,A549,> 10 µM (inactive)
same,GI50,786-0,> 10 µM (inactive)
same,GI50,NCI-H460,> 10 µM (inactive)
COC12C=CC(CC1)C(C)(C)C2OS(C)(=O)=O (stereo unspecified),GI50,SK-MEL-2,> 100 µM (inactive)
same,GI50,SK-OV-3,> 100 µM (inactive)
same,GI50,OVCAR-5,> 100 µM (inactive)
same,GI50,IGROV-1,> 100 µM (inactive)
same,GI50,HL-60,> 100 µM (inactive)
same,GI50,CCRF-CEM,> 100 µM (inactive)
same,GI50,SW-620,> 100 µM (inactive)
same,GI50,HOP-92,> 100 µM (inactive)
same,GI50,SNB-75,38.3 µM (inactive)
same,GI50,RXF 393,> 100 µM (inactive)
same,GI50,OVCAR-4,> 100 µM (inactive)
same,GI50,U-251,> 100 µM (inactive)
same,GI50,DU-145,> 100 µM (inactive)
same,GI50,MDA-MB-231,> 100 µM (inactive)
same,GI50,UACC-257,> 100 µM (inactive)
same,GI50,RPMI-8226,> 100 µM (inactive)
same,GI50,SNB-19,> 100 µM (inactive)
same,GI50,HT-29,> 100 µM (inactive)
same,GI50,CAKI-1,> 100 µM (inactive)
same,GI50,SK-MEL-28,> 100 µM (inactive)
same,GI50,HCT-116,> 100 µM (inactive)
same,GI50,MOLT-4,> 100 µM (inactive)
same,GI50,SF-295,> 100 µM (inactive)
same,GI50,MCF7,> 100 µM (inactive)
same,GI50,SF-539,> 100 µM (inactive)
same,GI50,MDA-MB-435,> 100 µM (inactive)
same,GI50,EKVX,> 100 µM (inactive)
same,GI50,COLO 205,> 100 µM (inactive)
same,GI50,BT-549,> 100 µM (inactive)
same,GI50,OVCAR-3,> 100 µM (inactive)
same,GI50,OVCAR-8,> 100 µM (inactive)
same,GI50,PC-3,> 100 µM (inactive)
same,GI50,HCT-15,> 100 µM
same,GI50,SF-268,> 100 µM (inactive)
same,GI50,K562,> 100 µM (inactive)
same,GI50,NCI-H226,> 100 µM (inactive)
same,GI50,MDA-N,> 100 µM (inactive)
same,GI50,SR,> 100 µM (inactive)
same,GI50,HOP-62,> 100 µM (inactive)
same,GI50,UO-31,> 100 µM (inactive)
same,GI50,SK-MEL-5,> 100 µM (inactive)
same,GI50,SN12C,> 100 µM (inactive)
same,GI50,A498,97.1 µM (inactive)
same,GI50,M14,> 100 µM (inactive)
same,GI50,KM12,> 100 µM (inactive)
same,GI50,UACC-62,> 100 µM (inactive)
same,GI50,TK-10,> 100 µM (inactive)
same,GI50,Malme-3M,> 100 µM (inactive)
same,GI50,NCI/ADR-RES,> 100 µM (inactive)
same,GI50,ACHN,> 100 µM (inactive)
same,GI50,NCI-H522,> 100 µM (inactive)
same,GI50,HCC 2998,> 100 µM (inactive)
same,GI50,T47D,> 100 µM (inactive)
same,GI50,Hs-578T,> 100 µM (inactive)
same,GI50,NCI-H23,> 100 µM (inactive)
same,GI50,A549,> 100 µM (inactive)
same,GI50,786-0,> 100 µM (inactive)
same,GI50,NCI-H460,> 100 µM (inactive)
